In patent US5306710A, “Method for treating endotoxin shock with CRF” (Regents of the University of California, priority 1992, dated 1994):
No end group written: not given here.

What was measured:
[1] = system: rat brain after cold injury (brain edema); assay: Freeze injury to cerebral cortex, water and sodium content as index of brain edema; assay type: in vivo; settings: CRF 30 μg/kg s.c. 2×, tissues 3 hr after cold injury, ± S.E.M., N = 5
Experimental: In a second set of experiments, the brain surface, namely the cerebral cortex, was injured by freezing and the water and sodium content were measured in the cerebral cortex and in the basal ganglia, a part of the brain away from the freeze zone. The water and sodium content of the brain tissue served as an index of brain edema. After freeze injury, the water and sodium content of the cerebral cortex were evaluated relative to non-frozen tissues. CRF administered in two separate doses of 30 μg/kg subcutaneously, one dose 15 min. before the injury and the second dose 90 min. after the first dose, inhibited the two indices of brain edema.
Male SpragueDawley rats, 300-325 g, anesthetized with
ketamineacepromazine, were injected saline or CRF (30 μg/kg s.c.
2×) and injury to cerebral cortex was produced by applying a cold
probe to the skull for 1 min. Brain tissues were obtained 3 hr later and
analyzed for water and sodium content.

[2] = system: rat brain after cold injury (vascular permeability); assay: Freeze (cold) injury to brain, Monastral blue vascular leakage; assay type: in vivo
From the text: An in vivo model of injury to study brain edema has been developed as a reproducible edema model, which has the features of immediate cortical damage followed by the subsequent development of brain edema. This model is described by Chan et al., Brain Research 277, pp. 329-337 (1983). The model uses rats which are anesthetized. A 2.5 cm incision is made over the sagittal suture and the bone of the right hemisphere exposed. A 60 mm^2 plate attached to a brass cup filled with dry ice-acetone mixture, with a temperature of -50° C., is applied to the rat skull for one minute. The animals are sacrificed at various intervals after the onset of cold-injury. A dye is administered intravenously before the freezing. Cortical slices are then obtained of the brain.
16 male rats were randomly divided into eight pairs and one rat in each pair received either saline or CRF (subcutaneously twice at 30 μg/kg, 30 min and 10 min before cold injury). The animals were anesthetized with sodium pentobarbital, 60 mg/kg intraperitoneally, and injected with Monastral blue, 60 mg/kg intravenously. A cold probe was applied onto the skull for […] and the brains taken out 1 hour after cold injury. The staining of brain tissues with Monastral blue, a colloidal pigment that gets trapped between the albuminal surface of the endothelial cell and the basement membrane, was proportional to the degree of vascular leakage. The results from the first pair are shown as FIG. 1.
The size of the lesion, measured as area in mm^2, and the degree of staining intensity, were quantified using an image-analysis software program called JAVA (Jandel Corporation, San Rafeal, Calif.). The stain intensity, given in arbitrary units, was internally calibrated using Monastral blue solutions (1-30 mg/ml) placed on white filter paper. Values are mean ±S. E. M.

[3] = system: PAF-acether; assay: Vascular leakage produced by PAF-acether injected subcutaneously into the abdomen; assay type: in vivo, rat; settings: CRF 30 μg/kg s.c. 30 min before PAF-acether
Experimental: (§1) CRF: 30 μg/kg s.c. injected 30 min before subcutaneous
(§2) injection of PAF-acether (1 μg/0.1 ml/rat) into the
(§3) abdomen; muscle removed 0.5 hr later.

[4] = as above; assay type: in vivo, rat; settings: CRF 30 μg/kg s.c. 30 min before PAF-acether 1 μg/0.1 ml/rat s.c.; muscle removed 0.5 hr later
Experimental: as §1, §2, §3

[5] = system: rat abdominal muscle after celiotomy (vascular leakage); assay: Vascular leakage after celiotomy (4 cm midline incision through abdominal muscle wall), Monastral blue; assay type: in vivo; settings: for Area / Intensity / Lesion Size: tissues 0.5 hr after surgery
Experimental: Experiments were conducted on male Sprague-Dawley rats 243±15 gm (S. D., Simonsen Labs., Gilroy, Calif.) anesthetized with sodium pentobarbital, 60 mg/kg i.p. Monastral blue, 60 mg/kg i.v., was injected 0.2 ml/100 g, 3 min. before a 4 cm midline incision through the abdominal muscle wall (celiotomy). Saline or CRF was administered to randomizd pairs with N=8 rats per group. The size of the lesion, measured as area in mm^2, an its light intensity, were quantified using the JAVA image-analysis software program. The light intensity, given in arbitrary units, was internally calibrated using Monastral blue solutions (1-30 mg/ml) placed on white filter paper. Values are mean ±S. E. M. FIG. 2 illustrates the respective amount of vascular permeability for one pair of rats (control and treated). Tables III and IV set out data from these experiments.
CRF: injected at various doses subcutaneously 30 min
before a 4 cm midline incision, tissues taken 0.5 hr
CRF: 30 μg/kg s.c. injected 2 hr before a 4 cm midline
incision, tissues taken 0.5 hr after surgery

[6] = system: rat pawskin; settings: mediators injected into the rat pawskin; previously shown; cited from earlier work
[7] = system: blood pressure; settings: prior art report; cited from earlier work
[8] = system: ACTH; settings: prior art report; cited from earlier work
[9] = CRF 15 μg/kg s.c. 30 min before incision
[10] = CRF 30 μg/kg s.c. 30 min before incision
[11] = CRF 30 μg/kg s.c. 2 hr before incision
[12] = CRF 60 μg/kg s.c. 30 min before incision

Corticotropin-Releasing Factor (SEEPPISLDLTFHLLREVLEMARAEQLAQQAHSNRKLMEII; not fully specified; ends and bridges not checked; UniProt P06850 154-194, looked up) [CRF]
SODIUM, cerebral cortex ([1]; injured cerebral cortex): 271 ± 8 mEg/kg dry wt | WATER CONTENT, cerebral cortex ([1]; injured cerebral cortex): 77 ± 4% | SODIUM, basal ganglia ([1]; non-injured basal ganglia): 215 ± 9 mEg/kg dry wt | WATER CONTENT, basal ganglia ([1]; non-injured basal ganglia): 76 ± 1% | blinded observer's correct assignment of brains to saline or CRF group ([2]; eight pairs of rats, more damaged vs less damaged brain): 8 out of 8 | lesion size relative to that of the saline-treated group ([2]; rat, CRF 30 μg/kg s.c. twice before cold injury): 44% | Intensity (stain intensity) ([2]; rat, CRF 30 μg/kg s.c. twice, 30 min and 10 min before cold injury, brains taken 1 hour after injury, mean ± S.E.M.): 2.0 ± 0.05 arbitrary units | muscle lesion size relative to that of the saline-treated control group [3]: 44% | Intensity [4]: 1.4 ± 0.05 | lesion size relative to that of the saline-treated group [5, 9]: 63% | Area [5, 9]: 505 ± 16 mm^2 | Intensity [5, 9]: 2.0 ± 0.03 arbitrary units | Lesion Size [5, 9]: 1031 ± 44 | lesion size relative to that of the saline-treated group [5, 10]: 42% | Area [5, 10]: 361 ± 18 mm^2 | Intensity [5, 10]: 1.9 ± 0.05 arbitrary units | Lesion Size [5, 10]: 676 ± 47 | lesion size relative to that of the saline-treated group [5, 11]: 59% | Area [5, 11]: 477 ± 31 mm^2 | Intensity [5, 11]: 1.9 ± 0.03 arbitrary units | Lesion Size [5, 11]: 919 ± 51 | lesion size relative to that of the saline-treated group [5, 12]: 29% | Area [5, 12]: 257 ± 3 mm^2 | Intensity [5, 12]: 1.8 ± 0.05 arbitrary units | Lesion Size [5, 12]: 468 ± 19 | effect on edema-producing properties of inflammatory mediators (serotonin, substance P, bradykinin, neurotensin, histamine) [6]: antagonize the edema-producing properties of these mediators

oCRF: ovine (sheep) CRF, synthetic, disclosed in U.S. Pat. No. 4,415,558 (SQEPPISLDLTFHLLREVLEMTKADQLAQQAHSNRKLLDIA; not fully specified; ends and bridges not checked; UniProt P01142 148-188, looked up)
effect on blood pressure [7]: lower blood pressure

sauvagine (QGPPISIDLSLELLRKMIEIEKQEKEKQQAANNRLLLDTI; not fully specified; ends and bridges not checked; UniProt P01144 1-40, looked up) [40 amino acid peptide generally similar to CRF]
effect on ACTH secretion [8]: stimulating the secretion of ACTH and -endorphin | effect on blood pressure [7]: lowering blood pressure in mammals
